Assay results reported in US20240423944A1, “USE OF LAURYL GALLATE (LG) AS A HEMOSTATIC AGENT” (CENTRE DE BIOTECHNOLOGIE DE SFAX (CBS), priority 2021, published 2024).

How the values were obtained:
washed human platelets [1] = assay: Washed platelet aggregation by turbidimetry (light transmission aggregometer); format: cell-based
Experimental: Healthy volunteers had abstained from Aspirin and others anti-inflammatory drugs for at least […] prior to blood sampling. Written informed consent was obtained from all donors. Blood samples were collected into sodium citrate 3.2% and centrifuged for 10 min at 190 g. The supernatant thus obtained was the platelet-rich plasma (PRP).
Washed platelets were prepared from centrifuged PRP previously supplemented with rostacyclin (0.5 μM) to avoid platelet activation. The pellet was suspended in buffer A (pH 6.8) containing 140 mM NaCl, 5 mM KCl, 5 mM KH2PO4, 1 mM MgSO4, 10 mM N-2-hydroxyethylpiperazine-N′-2-ethanesulfonic acid, 5 mM glucose and 0.35% bovine serum albumin (w/v). The same buffer containing 1 mM CaCl2 and apyrase but without BSA (adjusted to pH 7.4) was added to the final suspension to reach 2×10^8 platelets/ml.
Different concentrations of LG were added to 270 μl of PRP or washed platelets from an initial concentration of 250 mM. Platelet aggregation was recorded using a light transmission aggregometer (SD Medical). The percentage of transmittance of PRP or washed platelets was recorded as 0%, and that of the appropriate PPP or buffer was recorded as 100% respectively. Each condition was repeated for many healthy volunteers. Platelets treated with DMSO serves as negative control. Potentiation between low doses of LG and collagen or TRAP to aggregate platelets was also determined.

platelets = conditions: Hongyan and Richard, 2004; cited from earlier work
Wistar rats = assay: Rat tail bleeding time; format: in vivo
Experimental: Wistar rats of either gender weighing between 200 and 250 g were purchased from the Central Pharmacy of Tunisia. Animal handling conforms to the European Convention (CE. no. 123). Animals were fed a standard chow diet and had free access to water. They were housed five rats in a cage (0.12 m^2). Bleeding time was measured by transection of the tail, 1 cm from the tip, of phenobarbital anesthetized rats (25 mg/kg. i.p). Immediately after transection, the tail was dipped for 5 seconds into LG solution (5, 50, or 100 mg/ml of LG dissolved in ethanol) or vehicle (ethanol) and then placed carefully on Whatman paper. Blood was allowed to drop on filter paper which was moved gently every 30 seconds until no more blood was dropped. […] The bleeding time was also determined for a lot of rats not treated with any solution (control) and for another treated with ethanol to test the effect of the solvent. Tranexamic acid (100 mg/ml) was used as a standard anti-hemorrhagic drug under the same conditions. Each condition was repeated for six rats.

CD62-P (P-selectin) = assay: Flow cytometry of α-granule secretion marker CD62-P; format: cell-based, human
Experimental: (§1) Washed platelets were pre-incubated with LG or DMSO for 5 and 10 min at 37° C. Samples were then incubated for 15 min at room temperature in the dark with anti-CD62P, anti-CD63 or monoclonal antibody PAC-1. This last recognize and binds only to the active form of integrin αIIbβ3 complex. Analysis of respective protein was performed using a FACS-Verse cytometer BD Biosciences). Platelets were identified on the basis of their Forward Scatter and Side Scatter properties.

phosphatidylserine (PS) = assay: Phosphatidylserine exposure by annexin V binding (flow cytometry); format: cell-based, human; conditions: LG 0.05 mM
Experimental: For phosphatidylserine exposure, washed platelets were pre-incubated with LG 0.05 mM or DMSO for 5 min at 37° C. Dilute the activated or non-activated sample with the 1× binding buffer provided in the kit to a final volume of 100 μl and add 5 μl of Annexin V AF647 (Clinisciences) for 15 min at 37° C. in the dark. The binding reaction is stopped with 500 ill of 1× binding buffer (Ramstrom 2010). Analysis was performed using LSR Fortessa cytometer (BD Biosciences).

CD63 = assay: Flow cytometry of dense granule secretion marker CD63; format: cell-based, human; conditions: following addition of LG
Experimental: as §1

human whole blood = assay: Thrombus formation on immobilized collagen under flow conditions; format: cell-based; conditions: LG 0.05 mM
Experimental: This method was performed as previously described (Gratacap et al, 2009). Briefly, biochips with micro-capillaries (Vena8Fluoro+®, Cellix) were coated with collagen type I. Epi-fluorescence microscope (Axio Observer; Carl Zeiss) allowed direct visualization of platelet adhesion and aggregation which was recorded with ORCA-R2 camera (Hamamatsu). Whole blood was collected into 13.6 UI/m1 lithium heparinate and platelets were labeled with DIOC6(Life Technologies, 2 μM, 10 min at 37° C.) LG (0.05 mM) was then added to blood just prior to injection through a micro-capillary at shear rate of 1500 s^−1. Thrombus formation was visualized with a 40× long working distance objective in real time. The range was fixed to 80 μm and the interval to 1.5 μm. The acquisition rate was chosen at one frame every 30 sec divided into two positions. Quantification of surface coverage was performed off-line using ImageJ software.

αIIbβ3 integrin = assay: Flow cytometry of αIIbβ3 activation with PAC-1 antibody; format: cell-based, human
Experimental: as §1

[2] = tested on: Gram-positive bacteria like Bacillus subtilis or Streptococcus mutans; conditions: cited from earlier work
washed human platelets [3] = assay: Calcium mobilization with CalciFluor 8-AM and flow cytometry; format: cell-based
Experimental: Platelet calcium flux was adapted from the work described by (Monteiro et al. 1999). Washed platelets re-suspended at 10^8/ml in platelet wash buffer were incubated with the calcium indicator dyes Calcifluor 8-AM (R&D system) at 5 μM and Pluronic F-127 0.02% v/v (Sigma Aldrich) for 30 min at 37° C. The platelets were washed twice with platelet wash buffer, re-suspended in Tyrode's buffer containing EGTA (1 mM) or BAPTA-AM (10 μM). Changes in cytosolic calcium concentration were associated with increased or decreased fluorescence emission of Calcifluor 8-AM (emission wavelengths of 500-570 nm). These changes were analyzed using flow cytometry BD LSRII Fortessa. Results were expressed in fold increased Median Fluorescence. The determination of internal calcium concentration in platelet was described by Grynkiewicz et al. (1985).

tumoral cell lines = conditions: Ortega et al, 2003; cited from earlier work
animal viruses = conditions: Hurtado et al, 2008; cited from earlier work
[4] = tested on: washed platelets from healthy donors; assay: Scanning electron microscopy of platelets; format: cell-based, human; conditions: 10 min, non-shaking
Experimental: Platelets are treated with TRAP 25 μM, LG (LC and HC) during 10 minutes. They were fixed in 2.5% glutaraldehyde in 0.1 M Sorensen phosphate buffer (pH 7.4) for at least 1 h at 37° C. After sedimentation, the pellets were re-suspended in water and made to adhere on poly-lysine coated glass coverslips. Platelets were then dehydrated in a graded ethanol series and dried by critical point drying with a Leica EM CPD 300. The samples were coated with 6 nm Platinium on a Leica EM Med 020 before being examined on a FEI Quanta 250 FEG scanning electron microscope, at an accelerating voltage of 5 kV (Valet 2021).

fungi = conditions: Kubo et al, 2003; cited from earlier work
Akt = assay: Western blotting of Akt phosphorylation (Ser473); format: cell-based, human
Experimental: (§2) Washed platelets were treated with LG (LC and HC) or DMSO. Aliquots were taken at 0, 2.5, 5 and 10 min, lysed with sample buffer and boiled. Proteins were loaded on to sodium dodecyl sulfate 10% polyacrylamide gel and, after electrophoresis, transferred to a nitrocellulose membrane. […] Phospho antibodies were diluted in TBS-Tween 5%-BSA (w/v) and incubated overnight and the others for 2 h. After washing, each blot was incubated with the corresponding horseradish peroxidase-conjugated anti-mouse or anti-rabbit. Immunoblots were developed using Super signal chemiluminescent substrate (Pierce, Rockford, IL) and analyzed with chemidoc Imaging system (Biorad).

Src kinases = assay: Western blotting of Src kinase cleavage; format: cell-based, human
Experimental: as §2

[5] = tested on: washed platelets from healthy donors; assay: Measurement of LDH leakage from washed platelets; format: cell-based, human; conditions: low doses of LG 0.1 mM), 10 min
Experimental: Washed platelets from healthy donors were treated with different doses of LG or control (DMSO) for 10 minutes at 37° C. Following, platelets were pelleted by centrifugation at 1800×g for 3 min. Supernatants were used to detect Lactate dehydrogenase (LDH) release by colorimetric method (Thermo Fisher Scientific), according to the manufacturer's protocol. The assay was performed in endpoint time of increased of formazan absorbance at 680 nm for 30 min. Maximal LDH leakage was obtained with lysis buffer. Results, expressed as percentage of LDH leakage are mean±SEM (n=6) (** p<0.01, *** p<0.001 according to Kruskal-Wallis test).

p38 MAPK = assay: Western blotting of p38 MAPK phosphorylation (Thr180/Tyr182); format: cell-based, human
Experimental: as §2

In the case of collagen [reference compound], the “platelet aggregation by agonist alone” value (washed human platelets [1]; collagen 0.15 μg/ml alone) is reported as “unable to trigger detectable platelet aggregation”.

In the case of `CCCOC(=O)c1cc(O)c(O)c(O)c1` [propyl gallate], the platelet aggregation (platelets) is given as “induce platelet aggregation”.

For `CCCCCCCCCCCCOC(=O)c1cc(O)c(O)c(O)c1` [LG, Dodecyl 3,4,5-trihydroxybenzoate], the “efficiency on bleeding time compared with tranexamic acid” value (Wistar rats; LG 50 mg/ml versus tranexamic acid 100 mg/ml in ethanol) was “significantly more efficient”, the tail bleeding time (Wistar rats; tail dipped 5 seconds, 50 mg/ml LG in ethanol) was “dramatically reduced” and the “expression of CD62-P on the plasma membrane” value (CD62-P (P-selectin); LG 0.05 mM) was “markedly increased”. The “expression of CD62-P on the plasma membrane” value (CD62-P (P-selectin); LG 0.75 mM) was “markedly increased”, the “α-granule secretion intensity compared with 50 μM TRAP” value (CD62-P (P-selectin); versus 50 μM TRAP) was “slightly lower” and the “exposure of PS on the platelet surface (annexin V binding)” value (phosphatidylserine (PS)) was “significant exposure”. For the same compound, the “plasma membrane expression level of CD63” value (CD63) was “significantly increased”, the “surface covered by platelets” value (human whole blood; collagen matrix, arterial shear rate) was “significantly increased” and the “thrombus volumes compared to control” value (human whole blood; collagen-coated microcapillaries, shear rate 1500 s^−1) was “significantly increased”. The “time to capillary occlusion” value (human whole blood; in several experiments, recording 300 s) was under 300 s, the “activation of αIIbβ3, lower than that induced by 50 μM TRAP” value (αIIbβ3 integrin; LG 0.05 mM versus 50 μM TRAP) was 50% and the “expression of the active form of the fibrinogen receptor αIIbβ3” value (αIIbβ3 integrin; particularly at 0.05 mM) was “significant increase”. The antibacterial activity [2] was “antibacterial activity”, the “cytoplasmic free calcium concentration” value (washed human platelets [3]; LG 0.05 mM, after 2.5 min) was 230 ± 25 nM and the free cytosolic calcium (washed human platelets [3]; LG 0.75 mM, at 0.5 min) was 105 ± 15 nM. The “anti-proliferative and pro-apoptotic activity” value (tumoral cell lines) was “anti-proliferative and pro-apoptotic activity”, the antiviral activity (animal viruses) was “potent antiviral activity” and the maximal platelet aggregation (washed human platelets [1]; LG 0.05 mM alone, washed human platelets, fast and stable) was about 80%. The maximal platelet aggregation (washed human platelets [1]; high concentrations of LG (0.75 mM), slow response) was about 50%, the “shape of dose-response of platelet aggregation” value (washed human platelets [1]; increasing concentrations, first peak 0.05 mM, decrease until 0.2 mM, plateau 0.75 to 1 mM) was “non-monotonic dose-response” and the platelet morphology ([4]; LG 0.05 mM) was “induced platelet shape change and filopodia formation”. The platelet morphology ([4]; LG 0.75 mM) was “membrane structure was strongly modified with a grainy appearance and apparent pores formation”, the antifungal activity (fungi) was “does not have antifungal activity” and the Akt phosphorylation (Akt; LG 0.05 mM) was “rapid activation”. For the same compound, the Akt activation (Akt; LG 0.75 mM) was “at later times”, the Src-kinase cleavage (Src kinases; LG 0.75 mM, substantial at 10 min) was “induced a cleavage of Src-kinase” and the Src-kinase cleavage (Src kinases; low dose of LG (0.05 mM)) was “no impact”. For the same compound, the “LDH release from platelets” value [5] was “no significant LDH release”, the “p38 MAPK phosphorylation” value (p38 MAPK; LG 0.05 mM) was “rapid activation” and the “p38 MAPK activation” value (p38 MAPK; LG 0.75 mM) was “at later times”.
